From patent US20260285866A1, “MODULATORS OF TRPML, THEIR COMPOSITIONS AND METHODS OF USE” (Caraway Therapeutics, Inc., priority 2024, published 2026)
pEC50: −log10 of the molar value.

Key:
Human TRPML3 = molecular target: T1, Human TRPML3 (Homo sapiens, UniProt Q8TDD5); assay: Fluorescent TRPML3 assay (as for TRPML1); assay type: cell-based; conditions: fluorescent calcium assay as for TRPML1, TRPML3 subtype
T1 construct: expressed in transfected cells
T1 sequence (Q8TDD5 1-553): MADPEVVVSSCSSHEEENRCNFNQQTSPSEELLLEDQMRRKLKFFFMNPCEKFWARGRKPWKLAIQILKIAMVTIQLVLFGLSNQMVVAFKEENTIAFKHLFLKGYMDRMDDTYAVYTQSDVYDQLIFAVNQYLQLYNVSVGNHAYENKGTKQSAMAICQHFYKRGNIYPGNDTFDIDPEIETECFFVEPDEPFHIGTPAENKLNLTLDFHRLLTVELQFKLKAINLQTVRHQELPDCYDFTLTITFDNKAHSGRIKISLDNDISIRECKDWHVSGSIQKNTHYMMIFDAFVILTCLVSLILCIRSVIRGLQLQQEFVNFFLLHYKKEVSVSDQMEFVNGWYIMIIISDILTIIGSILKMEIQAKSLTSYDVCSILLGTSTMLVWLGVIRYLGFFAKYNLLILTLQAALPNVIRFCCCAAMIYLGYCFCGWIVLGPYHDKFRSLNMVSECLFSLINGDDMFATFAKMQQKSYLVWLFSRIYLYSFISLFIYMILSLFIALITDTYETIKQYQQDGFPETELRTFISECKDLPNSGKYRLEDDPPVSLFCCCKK
Method: (§1) HEK-293 Trex cells were stably transfected with a construct consisting of the human coding sequence for TRPML1 cloned into the tet-inducible plasmid pCDNA5 T/O. Mutations were introduced into the TRPML1 sequence to facilitate expression on the cell surface (Silvia Vergarajauregui, Rosa Puertollano Traffic. 2006 March; 7(3): 337-353). Briefly, the cells are cultured in 150 mm round tissue culture dishes containing 20 mL of media. The day before the assay the cells are rinsed with DPBS-Ca-Mg and then treated briefly with Trypsin-EDTA. The Trypsin-EDTA is diluted with growth media, and cells are counted. 38×10^6 cells are re-plated into 150 mm round tissue culture dishes in media containing 0.5 μg/mL doxycycline to induce expression of hTRPML1.
(§2) The day of the experiment cells are lifted from the plates as above and collected by centrifugation. The cells are then suspended in dye loading buffer consisting of Ringer's solution supplemented with 0.1% Pluronic Acid and 1 micromolar Fluo4-AM dye. Cells are loaded for ~60 minutes in the dark with occasional mixing. The cells are collected by centrifugation, the loading media aspirated, and the cells resuspended in 25 mL Ringer's solution and incubated ~60 minutes in the dark. The cells are again collected by centrifugation, rinsed in Ringer's Solution and resuspended to 0.2×10^6 cells/mL in modified Ringer's solution containing 10 mM calcium.
(§3) Compounds are dissolved to a concentration of 10 millimolar with DMSO. Compound plates are created by dispensing compounds into 384 well black wall clear bottom plates (Greiner 781091). Positive and negative controls are included on each plate. Typically, different amounts of each compound are tested ranging from 100 nanoMoles (20 micromolar final concentration) decreasing in half-log steps to 31 picoMoles (6 nanomolar final concentration). Each concentration is typically tested in triplicate.
(§4) 50 microliters of dye-loaded cells are dispensed into each well of the compound assay plate created above. The fluorescence in each well is then determined with an excitation wavelength of 480 nm and an emission wavelength of 540 nm using either a Molecular Devices SpectraMax multimode plate reader or a Hamamatsu FDSS/uCell plate imager.
(§5) The resulting fluorescence for each well is exported as an ascii file and loaded into our LIMS for analysis. The percent activity of each compound at each concentration is determined by comparison to the positive and negative control wells included in each plate.
Assays for TRPML2 and TRPML3 were performed as above for TRPML1, by substituting the appropriate TRPML2 or TRPML3 subtype for the TRPML1.
(§6) EC50 values were calculated using a non-linear regression of Prism. In the table, “A” indicates an EC50 of less than 100 nM, “B” indicates an EC50 range from 100 nM to 500 nM: “C” indicates an EC50 range from 500 nM to 2 μM; and “D” indicates an EC50 greater than 2 μM.

Human TRPML1 = Human TRPML1 (Homo sapiens, UniProt Q9GZU1, L15A/L16A/L577A/L578A); assay: Fluorescent TRPML1 assay (Fluo4-AM, HEK-293 Trex cells expressing hTRPML1); assay type: cell-based; conditions: fluorescent calcium assay, doxycycline-induced hTRPML1
Method: Example 27. Fluorescent TRPML Assays
as §1, §2, §3, §4, §5, §6

Human TRPML1, sequence (Q9GZU1 whole entry L15A/L16A/L577A/L578A): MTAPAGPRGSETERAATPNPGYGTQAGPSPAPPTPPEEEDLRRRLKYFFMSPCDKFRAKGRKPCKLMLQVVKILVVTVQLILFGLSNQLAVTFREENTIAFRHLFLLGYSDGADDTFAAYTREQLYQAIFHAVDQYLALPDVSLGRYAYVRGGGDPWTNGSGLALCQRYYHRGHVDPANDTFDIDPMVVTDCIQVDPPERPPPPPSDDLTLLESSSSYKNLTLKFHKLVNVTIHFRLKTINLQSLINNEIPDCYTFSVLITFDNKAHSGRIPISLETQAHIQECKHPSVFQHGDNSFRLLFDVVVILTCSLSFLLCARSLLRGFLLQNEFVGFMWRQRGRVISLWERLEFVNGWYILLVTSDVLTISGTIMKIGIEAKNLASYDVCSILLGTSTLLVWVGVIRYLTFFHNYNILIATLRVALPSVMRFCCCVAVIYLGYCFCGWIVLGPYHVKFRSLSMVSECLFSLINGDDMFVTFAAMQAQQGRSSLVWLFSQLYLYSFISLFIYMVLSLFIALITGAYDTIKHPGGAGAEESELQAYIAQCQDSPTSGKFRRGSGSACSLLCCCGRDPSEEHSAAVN

Structure (SMILES)	pEC50 (Human TRPML3)	pEC50 (Human TRPML1)
C[C@@H]1CN(c2nccc3c2c(-c2ccncc2)cn3-c2cc(C#N)ccn2)[C@@H](C)CN1C(=O)C(C)(C)O [Compound 140, 2-(4-((2S,5R)-4-(2-hydroxy-2-methylpropanoyl)-2,5-dimethylpiperazin-1-yl)-3-(pyridin-4-yl)-1H-pyrrolo[3,2-c]pyridin-1-yl)isonicotinonitrile]	< 5.70	5.70 to 6.30
C[C@@H]1CN(c2ncnc3c2c(-c2ccccc2)cn3-c2cc(C#N)ccn2)[C@@H](C)CN1C(=O)C1(O)CN(C)C1 [Compound 130, 2-(4-((2S,5R)-4-(3-hydroxy-1-methylazetidine-3-carbonyl)-2,5-dimethylpiperazin-1-yl)-5-phenyl-7H-pyrrolo[2,3-d]pyrimidin-7-yl)isonicotinonitrile]	< 5.70	5.70 to 6.30
C[C@@H]1CN(c2ncnc3c2c(C2CC2)cn3-c2cc(C#N)ccn2)[C@@H](C)CN1C(=O)C(C)(C)O [Compound 105, 2-(5-cyclopropyl-4-((2S,5R)-4-(2-hydroxy-2-methylpropanoyl)-2,5-dimethylpiperazin-1-yl)-7H-pyrrolo[2,3-d]pyrimidin-7-yl)isonicotinonitrile]		5.70 to 6.30
C[C@@H]1CN(c2nccc3c2c(-c2ccncc2)cn3-c2cccc(C#N)c2)[C@@H](C)CN1C(=O)C(C)(C)O [Compound 145, 3-(4-((2S,5R)-4-(2-hydroxy-2-methylpropanoyl)-2,5-dimethylpiperazin-1-yl)-3-(pyridin-4-yl)-1H-pyrrolo[3,2-c]pyridin-1-yl)benzonitrile]	< 5.70	< 5.70
C[C@H]1CN(C(=O)C2(O)CCC2)CCN1c1ncnc2c1c(-c1ccccc1F)cn2-c1cc(C#N)ccn1 [Compound 117, (S)-2-(5-(2-fluorophenyl)-4-(4-(1-hydroxycyclobutane-1-carbonyl)-2-methylpiperazin-1-yl)-7H-pyrrolo[2,3-d]pyrimidin-7-yl)isonicotinonitrile]	5.70 to 6.30	5.70 to 6.30
CC(C)(O)C(=O)N1CCN(c2ncnc3c2c(-c2ccccc2F)cn3-c2cc(C#N)ccn2)CC1 [Compound 124, 2-(5-(2-fluorophenyl)-4-(4-(2-hydroxy-2-methylpropanoyl)piperazin-1-yl)-7H-pyrrolo[2,3-d]pyrimidin-7-yl)isonicotinonitrile]		5.70 to 6.30
C[C@@H]1CN(c2ncnc3c2c(-c2ccncc2)cn3-c2cc(F)cc(F)c2)[C@@H](C)CN1C(=O)C(C)(C)O [Compound 138, 1-((2R,5S)-4-(7-(3,5-difluorophenyl)-5-(pyridin-4-yl)-7H-pyrrolo[2,3-d]pyrimidin-4-yl)-2,5-dimethylpiperazin-1-yl)-2-hydroxy-2-methylpropan-1-one]		< 5.70
C[C@@H]1CN(c2ncnc3c2c(-c2ccccc2)cn3-c2cc(C#N)ccn2)[C@@H](C)CN1C(=O)C1(O)CC1 [Compound 156, 2-(4-((2S,5R)-4-(1-hydroxycyclopropane-1-carbonyl)-2,5-dimethylpiperazin-1-yl)-5-phenyl-7H-pyrrolo[2,3-d]pyrimidin-7-yl)isonicotinonitrile]	< 5.70	5.70 to 6.30
C[C@@H]1CN(c2nccc3c2c(-c2ccncc2)cn3-c2cccc(Cl)c2)[C@@H](C)CN1C(=O)C(C)(C)O [Compound 142, 1-((2R,5S)-4-(1-(3-chlorophenyl)-3-(pyridin-4-yl)-1H-pyrrolo[3,2-c]pyridin-4-yl)-2,5-dimethylpiperazin-1-yl)-2-hydroxy-2-methylpropan-1-one]	< 5.70	5.70 to 6.30
C[C@@H]1CN(c2ncnc3c2c(-c2nncs2)cn3-c2cc(C#N)ccn2)[C@@H](C)CN1C(=O)C(C)(C)O [Compound 155, 2-(4-((2S,5R)-4-(2-hydroxy-2-methylpropanoyl)-2,5-dimethylpiperazin-1-yl)-5-(1,3,4-thiadiazol-2-yl)-7H-pyrrolo[2,3-d]pyrimidin-7-yl)isonicotinonitrile]		< 5.70
C[C@@H]1CN(c2nccc3c2c(-c2ccncc2)cn3-c2cc(F)cc(F)c2)[C@@H](C)CN1C(=O)C(C)(C)O [Compound 143, 1-((2R,5S)-4-(1-(3,5-difluorophenyl)-3-(pyridin-4-yl)-1H-pyrrolo[3,2-c]pyridin-4-yl)-2,5-dimethylpiperazin-1-yl)-2-hydroxy-2-methylpropan-1-one]		< 5.70
C[C@@H]1CN(c2ncnc3c2c(C2CC2)cn3-c2cc(C#N)ccn2)[C@@H](C)CN1C(=O)CC(O)(C(F)(F)F)C(F)(F)F [Compound 162, 2-(5-cyclopropyl-4-((2S,5R)-2,5-dimethyl-4-(4,4,4-trifluoro-3-hydroxy-3-(trifluoromethyl)butanoyl)piperazin-1-yl)-7H-pyrrolo[2,3-d]pyrimidin-7-yl)isonicotinonitrile]	6.30 to 7.00	

Further lines, results first:

pEC50 (Human TRPML3)	pEC50 (Human TRPML1)	Structure (SMILES)
< 5.70	5.70 to 6.30	C[C@@H]1CN(c2ncnc3c2c(-c2ccno2)cn3-c2cc(C#N)ccn2)[C@@H](C)CN1C(=O)C(C)(C)O [Compound 152]
5.70 to 6.30	6.30 to 7.00	C[C@@H]1CN(c2ncnc3c2c(-c2ccccc2)cn3-c2cc(C#N)ccn2)[C@@H](C2CC2)CN1C(=O)C(C)(C)O [Compound 119, 2-(4-((2S,5R)-2-cyclopropyl-4-(2-hydroxy-2-methylpropanoyl)-5-methylpiperazin-1-yl)-5-phenyl-7H-pyrrolo[2,3-d]pyrimidin-7-yl)isonicotinonitrile]
5.70 to 6.30	6.30 to 7.00	CC[C@H]1CN(C(=O)C(C)(C)O)CCN1c1ncnc2c1c(-c1ccccc1)cn2-c1cc(C#N)ccn1 [Compound 111, (S)-2-(4-(2-ethyl-4-(2-hydroxy-2-methylpropanoyl)piperazin-1-yl)-5-phenyl-7H-pyrrolo[2,3-d]pyrimidin-7-yl)isonicotinonitrile]
5.70 to 6.30	6.30 to 7.00	C[C@@H]1CN(c2ncnc3c2c(-c2ccccc2F)cn3-c2cc(OC(F)(F)F)ccn2)[C@@H](C)CN1C(=O)C(C)(C)O [Compound 103, 1-((2R,5S)-4-(5-(2-fluorophenyl)-7-(4-(trifluoromethoxy)pyridin-2-yl)-7H-pyrrolo[2,3-d]pyrimidin-4-yl)-2,5-dimethylpiperazin-1-yl)-2-hydroxy-2-methylpropan-1-one]
5.70 to 6.30	> 7.00	C[C@@H]1CN(c2ncnc3c2c(-c2ccccc2)cn3-c2cc(C#N)ccn2)[C@@H](C)CN1C(=O)C(C)(C)O [Compound 101, 2-(4-((2S,5R)-4-(2-hydroxy-2-methylpropanoyl)-2,5-dimethylpiperazin-1-yl)-5-phenyl-7H-pyrrolo[2,3-d]pyrimidin-7-yl)isonicotinonitrile]
6.30 to 7.00	> 7.00	C[C@@H]1CN(c2ncnc3c2c(-c2ccccc2F)cn3-c2cc(C#N)ccn2)[C@@H](C)CN1C(=O)C1(O)CCC1 [Compound 114, 2-(5-(2-fluorophenyl)-4-((2S,5R)-4-(1-hydroxycyclobutane-1-carbonyl)-2,5-dimethylpiperazin-1-yl)-7H-pyrrolo[2,3-d]pyrimidin-7-yl)isonicotinonitrile]
< 5.70	6.30 to 7.00	C[C@@H]1CN(c2ncnc3c2c(N2CCC2)cn3-c2cc(C#N)ccn2)[C@@H](C)CN1C(=O)C(C)(C)O [Compound 107, 2-(5-(azetidin-1-yl)-4-((2S,5R)-4-(2-hydroxy-2-methylpropanoyl)-2,5-dimethylpiperazin-1-yl)-7H-pyrrolo[2,3-d]pyrimidin-7-yl)isonicotinonitrile]
